Data reported in article PMC7554656 (Molecular Metabolism, 2020).

Target: T1, SGLT2 (sodium-glucose cotransporter 2) (Homo sapiens, UniProt P31639)
T1 sequence (P31639 1-672): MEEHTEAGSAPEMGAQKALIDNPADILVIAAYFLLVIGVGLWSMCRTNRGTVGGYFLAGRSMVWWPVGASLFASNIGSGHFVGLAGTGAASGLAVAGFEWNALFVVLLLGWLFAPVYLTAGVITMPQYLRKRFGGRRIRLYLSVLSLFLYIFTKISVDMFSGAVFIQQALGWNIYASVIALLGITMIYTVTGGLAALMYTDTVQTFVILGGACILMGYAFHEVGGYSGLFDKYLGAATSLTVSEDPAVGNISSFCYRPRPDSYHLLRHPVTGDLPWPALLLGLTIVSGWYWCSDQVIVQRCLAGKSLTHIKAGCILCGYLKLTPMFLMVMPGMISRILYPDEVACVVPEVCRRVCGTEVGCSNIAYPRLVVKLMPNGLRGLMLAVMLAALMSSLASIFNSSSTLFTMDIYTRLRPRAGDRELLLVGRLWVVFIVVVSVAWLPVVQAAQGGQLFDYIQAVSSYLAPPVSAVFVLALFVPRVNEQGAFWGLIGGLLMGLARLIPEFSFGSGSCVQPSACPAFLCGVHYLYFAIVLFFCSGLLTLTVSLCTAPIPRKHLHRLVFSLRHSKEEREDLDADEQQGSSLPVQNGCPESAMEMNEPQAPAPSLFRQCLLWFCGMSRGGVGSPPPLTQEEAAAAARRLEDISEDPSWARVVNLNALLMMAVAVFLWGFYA
Test: inhibition of […]-alpha-methyl-D-glucopyranoside uptake in HEK293-hSGLT2 cells
Format: cell-based

EC50: 4.3 nM
SMILES: OC[C@H]1O[C@@H](c2ccc(Cl)c(Cc3ccc(O[C@H]4CCOC4)cc3)c2)[C@H](O)[C@@H](O)[C@@H]1O [empagliflozin]
